Residue numbers refer to the chain shown, from its start. Like-named read-outs stand apart in the source and are kept apart here.
Columns and labels:
[1] = test system: NvR12 HCT116 cells (p.C604W); test: Flow cytometry cell cycle profiles, NvR12; format: cell-based, human; conditions: NvR12, 24 hours
Experimental: Cells were fixed overnight at −20° C. in 70% ethanol, washed in PBS, then incubated in 10 μg/ml propidium iodide and 0.5% RNase (Sigma) for 30 min and then analysed using LSRII flow cytometer (BD Biosciences). To stain for mitosis, cells were incubated for 1 hour at 4° C. with anti-MPM2 antibodies (Millipore, 05-368), then 1 hour at 4° C. with FITC-conjugated secondary antibodies (Life technology).

parental HCT116 cells = test: Flow cytometry cell cycle profiles, parental HCT116; format: cell-based, human; conditions: parental, 24 hours
Experimental: Cells were fixed overnight at −20° C. in 70% ethanol, washed in PBS, then incubated in 10 μg/ml propidium iodide and 0.5% RNase (Sigma) for 30 min and then analysed using LSRII flow cytometer (BD Biosciences).

[2] = target: T1, recombinant full-length MPS1 p.C604W (Homo sapiens, UniProt P33981, C604W); test: Recombinant MPS1 kinase assay (electrophoretic mobility shift), p.C604W; format: biochemical; conditions: C604W, mean ± SD, quadruplicate
T1 construct: made in house; host or cells: Sf9 insect cells (baculovirus, modified pFastBac1)
T1 sequence (P33981 1-857 C604W): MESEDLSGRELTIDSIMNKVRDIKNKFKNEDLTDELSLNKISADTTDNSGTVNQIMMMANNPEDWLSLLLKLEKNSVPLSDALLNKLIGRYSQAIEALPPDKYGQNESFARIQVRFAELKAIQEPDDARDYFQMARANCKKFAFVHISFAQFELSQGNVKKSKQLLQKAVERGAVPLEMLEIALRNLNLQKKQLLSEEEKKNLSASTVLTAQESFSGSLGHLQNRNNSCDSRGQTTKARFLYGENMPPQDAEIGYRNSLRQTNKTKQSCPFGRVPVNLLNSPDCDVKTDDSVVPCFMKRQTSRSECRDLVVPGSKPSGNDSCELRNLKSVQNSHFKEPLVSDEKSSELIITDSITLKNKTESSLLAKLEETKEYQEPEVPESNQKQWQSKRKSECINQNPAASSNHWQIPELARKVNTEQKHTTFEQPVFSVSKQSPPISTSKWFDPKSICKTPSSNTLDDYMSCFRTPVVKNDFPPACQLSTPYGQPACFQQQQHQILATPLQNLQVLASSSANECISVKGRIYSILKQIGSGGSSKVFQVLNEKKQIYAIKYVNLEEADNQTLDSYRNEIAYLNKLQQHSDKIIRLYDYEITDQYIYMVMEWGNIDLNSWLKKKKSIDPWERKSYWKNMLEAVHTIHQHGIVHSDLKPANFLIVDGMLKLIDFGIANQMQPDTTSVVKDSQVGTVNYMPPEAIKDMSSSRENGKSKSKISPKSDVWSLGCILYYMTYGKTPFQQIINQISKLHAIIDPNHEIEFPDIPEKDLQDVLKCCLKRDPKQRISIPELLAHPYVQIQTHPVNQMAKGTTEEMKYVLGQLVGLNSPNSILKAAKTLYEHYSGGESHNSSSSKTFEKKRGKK
Experimental: (§1) For high ATP concentration assays, 1 mM ATP was used. An ECHO® 550 (Labcyte Inc) acoustic dispenser was used to generate duplicate 8 point dilution curves directly into 384-well low-volume polystyrene assay plates (Corning Life Sciences). The reaction was carried out for 90 min at room temperature.

[3] = target: T2, recombinant full-length wild-type MPS1 (Homo sapiens, UniProt P33981); test: Recombinant MPS1 kinase assay (electrophoretic mobility shift), WT; format: biochemical; conditions: mean ± SD, quadruplicate
T2 construct: For protein expression of full-length MPS1 proteins, Sf9 insect cells were grown at 27° C; made in house; host or cells: Sf9 insect cells (baculovirus, modified pFastBac1)
T2 sequence (P33981 1-857): T1 sequence (P33981 1-857 C604W) with W604C
Experimental: as §1

[4] = ATP at Km, read-out: IC50 values at ATP Km
[5] = IC50 values at 1 mM ATP, 1 mM ATP

Cc1ncc(-c2ccc(Nc3cc4c(cn3)cc(-c3cnn(C)c3)n4C(=O)OC(C)C)cc2)n1C [Compound 2, Isopropyl 6-(4-(1,2-dimethyl-1H-imidazol-5-yl)-2-phenylamino)-2-(1-methyl-1H-pyrazol-4-yl)-1H-pyrrolo[3,2-c]pyridine-1-carboxylate]
concentration causing loss of cell cycle profiles [1]: 100 nM | concentration causing loss of cell cycle profiles (parental HCT116 cells): 600 nM | IC50 [2, 4]: 13.3 ± 2.9 nM | IC50 [2, 5]: 16.3 ± 4 nM | IC50 [3, 4]: 3.3 ± 1.1 nM | IC50 [3, 5]: 60 ± 20 nM
